Laboratory results as given in patent EP0678100B1, “SYNTHETIC AMPHIPATHIC PEPTIDES WITH ANTIMICROBIAL ACTIVITY” (PIONEER HI-BRED INTERNATIONAL, INC., priority 1993, dated 1998).
Values after ≈ are worked out from the molar mass of the structure shown. Like-named read-outs stand apart in the source and are kept apart here. Residues, ends and D or L forms follow the SMILES beside them. No end group written: not given here.

Assays:
F. moniliforme = details: for MCIC: Minimum Complete Inhibitory Concentration, achieving a score of 3 or greater
A. flavus = details: for MCIC: Minimum Complete Inhibitory Concentration, achieving a score of 3 or greater
[1] = F. graminearum, minimum inhibitory concentration, achieving a score of 1 or greater
[2] = F. moniliforme, minimum inhibitory concentration, achieving a score of 1 or greater
[3] = A. flavus, minimum inhibitory concentration, achieving a score of 1 or greater

With `CC[C@H](C)[C@H](NC(=O)CNC(=O)[C@@H](NC(=O)[C@@H](NC(=O)[C@@H](NC(=O)CNC(=O)[C@@H]1CCCN1C(=O)CNC(=O)[C@H](C)NC(=O)[C@H](CCCCN)NC(=O)[C@@H](NC(=O)[C@H](CCCCN)NC(=O)[C@H](CCCCN)NC(=O)[C@@H]1CCCN1C(=O)[C@@H](NC(=O)[C@H](Cc1c[nH]cn1)NC(=O)[C@H](CCCCN)NC(=O)[C@@H](NC(=O)[C@H](C)NC(=O)[C@H](CCCCN)NC(=O)[C@H](CCC(=O)O)NC(=O)[C@@H](NC(=O)[C@H](CCCCN)NC(=O)[C@@H](N)CCCCN)[C@@H](C)CC)[C@@H](C)CC)[C@@H](C)CC)[C@@H](C)CC)C(C)C)[C@@H](C)O)[C@@H](C)CC)C(=O)N[C@@H](C)C(=O)N[C@@H](Cc1c[nH]cn1)C(=O)N[C@@H](C)C(=O)N[C@@H](CCCCN)C(=O)N[C@@H](CO)C(=O)N[C@@H](CCC(N)=O)C(=O)N[C@@H](CC(C)C)C(=O)N[C@@H](Cc1c[nH]c2ccccc12)C(=O)O` [Peptide 1] (H-KKIEKAIKHIPKKIKAGPGVTIGIAHAKSQLW-OH) the MIC (F. graminearum; [1]) was 0.017 ng/mL (≈ 0.00487 nM) and the MIC (F. moniliforme; [2]) was 17.
`CC[C@H](C)[C@H](NC(=O)CNC(=O)[C@@H](NC(=O)[C@@H](NC(=O)[C@@H](NC(=O)CNC(=O)[C@@H]1CCCN1C(=O)CNC(=O)[C@H](C)NC(=O)[C@H](CCCCN)NC(=O)[C@H](Cc1c[nH]c2ccccc12)NC(=O)[C@H](Cc1c[nH]cn1)NC(=O)[C@H](CCCNC(=N)N)NC(=O)[C@H](C)NC(=O)[C@H](CC(C)C)NC(=O)[C@H](C)NC(=O)[C@H](CCCNC(=N)N)NC(=O)[C@H](CC(C)C)NC(=O)[C@H](C)NC(=O)[C@H](CCCCN)NC(=O)[C@H](CCCCN)NC(=O)[C@H](CC(C)C)NC(=O)[C@@H](N)CCCCN)C(C)C)[C@@H](C)O)[C@@H](C)CC)C(=O)N[C@@H](C)C(=O)N[C@@H](Cc1c[nH]cn1)C(=O)N[C@@H](C)C(=O)N[C@@H](CCCCN)C(=O)N[C@@H](CO)C(=O)N[C@@H](CCC(N)=O)C(=O)N[C@@H](CC(C)C)C(=O)N[C@@H](Cc1c[nH]c2ccccc12)C(=O)O` [Peptide 2] (H-KLKKALRALARHWKAGPGVTIGIAHAKSQLW-OH) showed an MIC (F. graminearum; [1]) of 0.014 ng/mL (≈ 0.00411 nM) and an MIC (F. moniliforme; [2]) of 14.
`CC[C@H](C)[C@H](NC(=O)CNC(=O)[C@@H](NC(=O)[C@@H](NC(=O)[C@@H](NC(=O)CNC(=O)[C@@H]1CCCN1C(=O)CNC(=O)[C@H](C)NC(=O)[C@H](CC(C)C)NC(=O)[C@H](C)NC(=O)[C@H](CCCNC(=N)N)NC(=O)[C@@H](NC(=O)[C@H](CCCNC(=N)N)NC(=O)[C@@H](NC(=O)[C@H](CCCNC(=N)N)NC(=O)[C@H](CCCNC(=N)N)NC(=O)[C@@H]1CCCN1C(=O)[C@@H](NC(=O)[C@H](Cc1c[nH]cn1)NC(=O)[C@H](CCCNC(=N)N)NC(=O)[C@@H](NC(=O)[C@H](C)NC(=O)[C@H](CCCNC(=N)N)NC(=O)[C@H](Cc1ccc(O)cc1)NC(=O)[C@@H](NC(=O)[C@H](CCCNC(=N)N)NC(=O)[C@H](CCCNC(=N)N)NC(=O)[C@@H](NC(=O)[C@H](C)NC(=O)[C@H](CCCNC(=N)N)NC(=O)[C@@H](N)CCC(N)=O)C(C)C)[C@@H](C)CC)[C@@H](C)CC)[C@@H](C)CC)[C@@H](C)CC)[C@@H](C)CC)C(C)C)[C@@H](C)O)[C@@H](C)CC)C(=O)N[C@@H](C)C(=O)N[C@@H](Cc1c[nH]cn1)C(=O)N[C@@H](C)C(=O)N[C@@H](CCCCN)C(=O)N[C@@H](CO)C(=O)N[C@@H](CCC(N)=O)C(=O)N[C@@H](CC(C)C)C(=O)N[C@@H](Cc1c[nH]c2ccccc12)C(=O)O` [Peptide 3] (H-QRAVRRIYRAIRHIPRRIRIRALAGPGVTIGIAHAKSQLW-OH) was tested, and the MIC (F. graminearum; [1]) was 0.013 ng/mL (≈ 0.00281 nM), the MIC (F. moniliforme) was 13 and the “% Inhibition of Growth” value (E. coli; concentration 3.00 µg/ml) was 0%. For the same compound, the “% Inhibition of Growth” value (E. coli; concentration 6.25 µg/ml) was 0%, the “% Inhibition of Growth” value (E. coli; concentration 12.5 µg/ml) was 0% and the “% Inhibition of Growth” value (E. coli; concentration 25 µg/ml) was 0%. The “% Inhibition of Growth” value (E. coli; concentration 50 µg/ml) was 0%, the “% Inhibition of Growth” value (P. syringae; concentration 3.00 µg/ml) was 0% and the “% Inhibition of Growth” value (P. syringae; concentration 6.25 µg/ml) was 11%. For the same compound, the “% Inhibition of Growth” value (P. syringae; concentration 12.5 µg/ml) was 30%, the “% Inhibition of Growth” value (P. syringae; concentration 25 µg/ml) was 48% and the “% Inhibition of Growth” value (P. syringae; concentration 50 µg/ml) was 52%. The “% Inhibition of Growth” value (E. stewartii; concentration 3.00 µg/ml) was 0%, the “% Inhibition of Growth” value (E. stewartii; concentration 6.25 µg/ml) was 0% and the “% Inhibition of Growth” value (E. stewartii; concentration 12.5 µg/ml) was 49%. The “% Inhibition of Growth” value (E. stewartii; concentration 25 µg/ml) was 80% and the “% Inhibition of Growth” value (E. stewartii; concentration 50 µg/ml) was 100%.
With `CC[C@H](C)[C@H](NC(=O)CNC(=O)[C@@H](NC(=O)[C@@H](NC(=O)[C@@H](NC(=O)CNC(=O)[C@@H]1CCCN1C(=O)CNC(=O)[C@H](C)NC(=O)[C@H](CC(C)C)NC(=O)[C@H](C)NC(=O)[C@H](CCCNC(=N)N)NC(=O)[C@@H](NC(=O)[C@H](CCCCN)NC(=O)[C@@H](NC(=O)[C@H](CCCCN)NC(=O)[C@H](CCCCN)NC(=O)[C@@H]1CCCN1C(=O)[C@@H](NC(=O)[C@H](Cc1c[nH]cn1)NC(=O)[C@H](CCCCN)NC(=O)[C@@H](NC(=O)[C@H](C)NC(=O)[C@H](CCCCN)NC(=O)[C@H](CCC(=O)O)NC(=O)[C@@H](NC(=O)[C@H](CCCCN)NC(=O)[C@H](CCCCN)NC(=O)[C@@H](NC(=O)[C@H](C)NC(=O)[C@H](CCCNC(=N)N)NC(=O)[C@@H](N)CCC(N)=O)C(C)C)[C@@H](C)CC)[C@@H](C)CC)[C@@H](C)CC)[C@@H](C)CC)[C@@H](C)CC)C(C)C)[C@@H](C)O)[C@@H](C)CC)C(=O)N[C@@H](C)C(=O)N[C@@H](Cc1c[nH]cn1)C(=O)N[C@@H](C)C(=O)N[C@@H](CCCCN)C(=O)N[C@@H](CO)C(=O)N[C@@H](CCC(N)=O)C(=O)N[C@@H](CC(C)C)C(=O)N[C@@H](Cc1c[nH]c2ccccc12)C(=O)O` [Peptide 4] (H-QRAVKKIEKAIKHIPKKIKIRALAGPGVTIGIAHAKSQLW-OH) the MIC (F. graminearum; [1]) was 0.013 ng/mL (≈ 0.00296 nM) and the MIC (F. moniliforme; [2]) was 17.
`CC[C@H](C)[C@H](NC(=O)CNC(=O)[C@@H](NC(=O)[C@@H](NC(=O)[C@@H](NC(=O)CNC(=O)[C@@H]1CCCN1C(=O)CNC(=O)[C@H](C)NC(=O)[C@@H](NC(=O)[C@H](C)NC(=O)[C@H](CCCNC(=N)N)NC(=O)[C@H](CCC(N)=O)NC(=O)[C@H](CC(C)C)NC(=O)[C@H](C)NC(=O)[C@H](CCCNC(=N)N)NC(=O)[C@@H](NC(=O)[C@H](CCCCN)NC(=O)[C@H](CCCNC(=N)N)NC(=O)[C@H](CCCNC(=N)N)NC(=O)[C@H](CC(C)C)NC(=O)[C@H](Cc1c[nH]c2ccccc12)NC(=O)[C@H](CCCNC(=N)N)NC(=O)[C@@H](NC(=O)[C@H](CC(C)C)NC(=O)[C@H](CCCCN)NC(=O)[C@H](CCCNC(=N)N)NC(=O)[C@@H](NC(=O)[C@H](CC(C)C)NC(=O)[C@@H](N)CCCCN)[C@@H](C)CC)[C@@H](C)CC)[C@@H](C)CC)C(C)C)C(C)C)[C@@H](C)O)[C@@H](C)CC)C(=O)N[C@@H](C)C(=O)N[C@@H](Cc1c[nH]cn1)C(=O)N[C@@H](C)C(=O)N[C@@H](CCCCN)C(=O)N[C@@H](CO)C(=O)N[C@@H](CCC(N)=O)C(=O)N[C@@H](CC(C)C)C(=O)N[C@@H](Cc1c[nH]c2ccccc12)C(=O)O` [Peptide 7] (H-KLIRKLIRWLRRKIRALQRAVAGPGVTIGIAHAKSQLW-OH) showed an MIC (A. flavus; [3]) of 40, an MIC (F. graminearum) of 0.01 ng/mL (≈ 0.00229 nM) and an MIC (F. moniliforme; [2]) of 10.
`CC[C@H](C)[C@H](NC(=O)[C@H](C)NC(=O)[C@H](CCCNC(=N)N)NC(=O)[C@H](Cc1ccc(O)cc1)NC(=O)[C@@H](NC(=O)[C@H](CCCNC(=N)N)NC(=O)[C@@H](N)CCCNC(=N)N)[C@@H](C)CC)C(=O)N[C@@H](CCCNC(=N)N)C(=O)N[C@@H](Cc1c[nH]cn1)C(=O)N[C@H](C(=O)N1CCC[C@H]1C(=O)N[C@@H](CCCNC(=N)N)C(=O)N[C@@H](CCCNC(=N)N)C(=O)N[C@H](C(=O)N[C@@H](CCCNC(=N)N)C(=O)NCC(=O)N[C@@H](Cc1c[nH]c2ccccc12)C(=O)N[C@@H](CC(C)C)C(=O)N[C@@H](CCCNC(=N)N)C(=O)N[C@@H](CCCNC(=N)N)C(=O)N[C@H](C(=O)NCC(=O)N[C@@H](CCCNC(=N)N)C(=O)N[C@@H](CCCNC(=N)N)C(=O)N[C@H](C(=O)N[C@@H](CCC(=O)O)C(=O)N[C@@H](CCCNC(=N)N)C(=O)N[C@H](C(=O)NCC(=O)N[C@@H](CCC(N)=O)C(=O)N[C@@H](Cc1c[nH]cn1)C(=O)O)C(C)C)[C@@H](C)CC)[C@@H](C)CC)[C@@H](C)CC)[C@@H](C)CC` [Peptide 9] (H-RRIYRAIRHIPRRIRGWLRRIGRRIERVGQH-OH) showed an MIC (A. flavus) of 15, an MIC (F. graminearum; [1]) of 0.01 ng/mL (≈ 0.0025 nM) and an MIC (F. moniliforme) of 10.
With `CC[C@H](C)[C@H](NC(=O)[C@H](C)NC(=O)[C@H](CCCCN)NC(=O)[C@H](CCC(=O)O)NC(=O)[C@@H](NC(=O)[C@H](CCCCN)NC(=O)[C@@H](N)CCCCN)[C@@H](C)CC)C(=O)N[C@@H](CCCCN)C(=O)N[C@@H](Cc1c[nH]cn1)C(=O)N[C@H](C(=O)N1CCC[C@H]1C(=O)N[C@@H](CCCCN)C(=O)N[C@@H](CCCCN)C(=O)N[C@H](C(=O)N[C@@H](CCCCN)C(=O)N[C@@H](CC(C)C)C(=O)N[C@@H](CCCCN)C(=O)N[C@@H](CCCCN)C(=O)N[C@@H](C)C(=O)N[C@@H](CC(C)C)C(=O)N[C@@H](CCCNC(=N)N)C(=O)N[C@@H](C)C(=O)N[C@@H](CC(C)C)C(=O)N[C@@H](C)C(=O)N[C@@H](CCCNC(=N)N)C(=O)N[C@@H](Cc1c[nH]cn1)C(=O)N[C@@H](Cc1c[nH]c2ccccc12)C(=O)N[C@@H](CCCCN)C(=O)O)[C@@H](C)CC)[C@@H](C)CC` [Peptide 10] (H-KKIEKAIKHIPKKIKLKKALRALARHWK-OH) the MIC (A. flavus; [3]) was 80, the MIC (F. graminearum; [1]) was 0.01 ng/mL (≈ 0.00296 nM) and the MIC (F. moniliforme; [2]) was 7.5.
Cecropin A [reference compound] gave an MCIC (A. flavus; A. flavus) greater than 80 µg/mL, an MIC (A. flavus; [3]) of 80 and an MCIC (F. graminearum) greater than 80 µg/mL. For the same compound, the MIC (F. graminearum) was 0.06 ng/mL, the MCIC (F. moniliforme; F. moniliforme) was greater than 80 µg/mL and the MIC (F. moniliforme; [2]) was 80.
In the case of “IRALQRAVRHPRAIRRIYRGWKKAIRAGPGVTIGIAHAKSQLW [Peptide 6]”, the MIC (A. flavus; [3]) is reported as 80, the MIC (F. graminearum; [1]) is reported as 0.01 ng/mL and the MIC (F. moniliforme; [2]) is reported as 15.
Mastoparan [reference compound] showed an MCIC (A. flavus; A. flavus) of 40 µg/mL, an MIC (A. flavus; [3]) of 20 and an MCIC (F. graminearum) of 10 µg/mL. For the same compound, the MIC (F. graminearum) was 0.005 ng/mL, the MCIC (F. moniliforme; F. moniliforme) was 10 µg/mL and the MIC (F. moniliforme; [2]) was 2.5.
